Assay results from patent US8586569B2, “Betulonic and betulinic acid derivatives” (priority 2006, dated 2013).

Tested on: lymphocytes of patients suffering from chronic lymphoid leukaemia (human leukaemia cells)
Test: Sensibility of chronic lymphoid leukaemia lymphocytes in culture, 3H-thymidine incorporation (CPM) with or without PHA stimulation
Type: cell-based
Description: The sensibility of human leukaemia cells to acetoxymethyl 3β-(methoxypolyethylene glycol acetoxy)-lup-20(29)-en-28-oate 4c-β at different concentrations (from 0.04 mM up to 1 mM) was tested in vitro. The lymphocytes of three patients (4266866, 4266860 and 4262311) suffering from chronic lymphoid leukaemia were used in cell cultures.
On day 0: A multi-well plate was prepared per patient, each comprising 10^6 cells/well in a total volume of 1 ml. Cells, RPMI (cell growth medium) and test compound 4c-β were added in accordance with table 2 (all experiments were duplicated). The test compound dissolved in RPMI was added in the following amounts: 10 μl≡0.04 mM, 50 μl≡0.2 mM, 100 μl≡0.4 mM, 150 μl≡0.6 mM, 200 μl≡0.8 mM, and 250 μl≡1 mM.
On day 2: • 500 μl was taken from each well of plate 1 and put into a well of plate 2. • Plate 2: cells were tritiated with ^3H-thymidine for 4 hours; after the 4 hours incubation in the presence of radioactivity, plate 2 was harvested and radioactivity was counted. • Plate 1: 50 μl PHA was added to the 500 μl of each well of plate 1.
On day 5: • Plate 1: cells and PHA were tritiated with ^3H-thymidine for 4 hours; after the 4 hours incubation in the presence of radioactivity, plate 1 was harvested and radioactivity was counted.
PHA (a lectin named phytoagglutine, which is a mitogen activating living cells) was added to the cells in culture. PHA acts as a stimulating agent. All human lymphocytes have receptors for this type of lectin and all human lymphocytes undergo lymphoblastic transformation when stimulated by PHA. By adding PHA to the cells in culture, it was possible to measure whether the cells were still alive.
CPM stands for counts per minute and measures the disintegration of the tritiated ^3H-thymidine. Thus, CPM reflects the radioactivity of the cells' DNA having incorporated the tritiated ^3H-thymidine after mitosis. […]
On day 0: A multi-well plate was prepared, comprising 10^6 cells/well in a total volume of 1.5 ml. […] The test compound dissolved in RPMI was added in the following amounts: 125 μl≡0.5 mM and 250 μl≡1 mM. […]
The sensibility of human leukaemia cells to acetoxymethyl 3β-(methoxypolyethylene glycol acetoxy)-lupan-28-oate 8c-β at different concentrations (0.5 mM and 1 mM) was tested in vitro. The lymphocytes of one patient (4316182) suffering from chronic lymphoid leukaemia were used in cell cultures. […]
On day 2: • Plate 1: cells were tritiated with ^3H-thymidine for 4 hours; after the 4 hours incubation in the presence of radioactivity, plate 1 was harvested and radioactivity was counted. • Plate 2: cells were tritiated with ^3H-thymidine for 4 hours; after the 4 hours incubation in the presence of radioactivity, plate 2 was harvested and radioactivity was counted.

[1] = 0.5 mM and 1 mM, one patient, FIG. 4

Row | Substance | killing of cells by test compound [1] | reactivation of cells by addition of PHA after contact with test compound [1] | activation of cells by PHA after contact with test compound (plate 1, PHA added day 2, counted day 5, 0.04 mM up to 1 mM, three patients, FIGS. 2a-c) | time within which cells contacted with test compound were killed (CPM after 3H-thymidine) (plate 2, 0.04 mM up to 1 mM, three patients, FIGS. 2a-c)
1 | Acetoxymethyl 3β-(methoxypolyethylene glycol acetoxy)-lupan-28-oate [compound 8c-β] | killed the cells | unable to be reactivated by the addition of PHA |  | 
2 | Acetoxymethyl 3β-(methoxypolyethylene glycol acetoxy)-lup-20(29)-en-28-oate [compound 4c-β] |  |  | could no longer be activated by PHA | ≤ 48 h
